In patent US20060159776A1, “Compositions comprising components coated with a liquid impermeable but gas permeable layer, use thereof for treating cutaneous and other exocrine gland diseases” (priority 2003, published 2006):
“Also recorded” adds a separate entry of the source.

Test system: adults suffering from diabetes type 2
Test: Four-week substitution trial in adults with diabetes type 2 controlled by metformin alone

CN(C)C(=N)N=C(N)N [metformin, Metformin]
fasting plasma glucose (FPG) control (before the trial, on regular metformin 500 mg twice daily to 850 mg three times daily, five adults): below 8 mmol/l
side-effects of taking metformin (regular metformin, metallic taste three of five, abdominal discomfort all five): metallic taste in the mouth occasionally; also recorded: occasional abdominal discomfort
